System: glycogen-phosphorylase (PYGL) gene expression
Assay: PYGL gene expression by qRT-PCR in Human Follicle Dermal Papilla Cells
Format: cell-based
Conditions: 6 μg/mL; serum-starved HFDPC, 24 h treatment; compared with positive control (starved cells), p<0.005
Description: The PromoCell® Human Follicle Dermal Papilla Cells (HFDPC) cell line was used to test the inhibitory activity on PYGL of maslinic acid and a Swertia chirata extract (dry extract on maltodextrins) alone or as a combination.
HFDPCs (DP; PromoCell GmbH, Heidelberg, Germany, batch 325Z017.1 and 322Z030.1) were grown in base culture medium (Follicle Dermal Papilla Cell Growth Medium) (PromoCell GmbH) supplemented with 4 μL/mL of bovine pituitary gland extract (Bovine Pituitary Extract), 0.04 mL/mL fetal serum, 1 ng/ml recombinant human fibroblast growth factor, 5 μg/mL recombinant human insulin (PromoCell). Cells were cultured with […] primocin (Invivogen, Toulouse, France, #ant-pm-2) in a humidified incubator with 5% CO2 at 37° C.
POSITIVE CONTROL: Cells treated in Follicle Dermal Papilla Cell Growth medium without serum (starved) under the same culture conditions.
NEGATIVE CONTROL: Untreated cells in Follicle Dermal Papilla Cell Growth medium under the same culture conditions.
PYGL gene expression was studied by RT-PCR.
When cells (HFDPC) reached about 80% confluence, they were detached with trypsin/EDTA and seeded at a density of 1×10^6 cells/mL into 12-well plates and incubated at 37° C., 5% CO2 (24 h). […]

SMILES: CC1(C)CC[C@]2(C(=O)O)CC[C@]3(C)C(=CC[C@@H]4[C@@]5(C)C[C@@H](O)[C@H](O)C(C)(C)[C@@H]5CC[C@]43C)[C@@H]2C1 [maslinic acid, (2α,3β)-2,3-dihydroxyolean-12-en-28-oic acid]
- inhibition of PYGL gene expression: significantly inhibit (p<0.005)

Source: patent US20260224470A1, “Composition For Improving The Aesthetic Appearance Of Hair And Skin Appendages” (priority 2023, published 2026)
